Values quoted from earlier work, collected in patent publication US6194433A, “Sexual dysfunction in females” (Cutler; Neal R., priority 1998, dated 2001).

Legend:
[1] = not given; remark: listed apart in the source
phosphodiesterase III = conditions: Gristwood et al., Br. J. Pharmacol. 105:985 (1992)
phosphodiesterase = conditions: Frodsham et al., Eur. J. Pharmacol. 211:383 (1992)
[2] = Kelso et al., J Cardiovasc. Pharmacol. 25:376 (1995)
[3] = Perreault et al., Br. J Pharmacol. 106:511 (1992)
[4] = following coronary artery ligation; Jones et al., Br. J. Pharmacol. 108:1111 (1993)

| Structure (SMILES) | time of peak metabolite plasma levels (following oral dosage of flosequinan) | time of peak plasma concentrations of flosequinan (following oral administration) [h] | mean absolute bioavailability (oral, single dose of fifty milligrams) [%] | solubility in organic solvents ([1]; many organic solvents) | water solubility ([1]; water) | inhibition of phosphodiesterase III (phosphodiesterase III) | phosphodiesterase inhibition as relevant to efficacy in heart failure (phosphodiesterase) | usefulness in the treatment of heart failure [2] | effect in patients with end-stage failure [3] | effect on mortality or arrhythmias [4] |
| --- | --- | --- | --- | --- | --- | --- | --- | --- | --- | --- |
| Cn1cc(S(C)(=O)=O)c(=O)c2ccc(F)cc21 [metabolite] | about seven |  |  |  |  |  |  |  |  |  |
| Cn1cc([S+](C)[O-])c(=O)c2ccc(F)cc21 (stereo not shown) [flosequinan, 7-fluoro-1-methyl-3-methylsulphinyl-4-quinolone] |  | 1 to 2 | 72 | soluble in many organic solvents | water soluble | selective inhibitor of phosphodiesterase III | questionable | useful to some degree | little effect | does not affect mortality or arrhythmias |
